We go through four compounds from patent US9302996B2, “Continuous arycyclic compound” (MITSUBISHI TANABE PHARMA CORPORATION, priority 2010, dated 2016).

What all share (assay type): in vivo
For one assay, the system named is KK-Ay mice. The assay is described as follows: Weight gain-inhibiting action, hypoglycemic effect, insulin in blood plasma lowering action in KK-Ay mice. The note with it: Mus musculus, 336 h, male KK-Ay mice, high fat diet, 30 mg/kg/day oral, 2 weeks.
In another assay the test system is C57BL/6J mice. Description: Antifeeding activity (high fat diet intake up to 4 hours). The note with it: Mus musculus, male C57BL/6J mice, 5 mg/kg oral, food ingested up to 4 hours, read-out: Antifeeding rate (5 mg/kg).
The subject of the next assay is ICR mice. Description: Triglyceride (TG) in blood plasma increase-inhibiting action due to lipid administration. The note with it: Mus musculus; male ICR mice, 5 mg/kg oral, lipid (Intralipos 20%) after 30 minutes, plasma TG 2 hours after lipid; read-out: Inhibiting rate of TG-increase in blood plasma (5 mg/kg). In a few lines:
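Male ICR mice (6–9 weeks), fasted overnight, dosed orally with compound in 0.2% CMC; oral lipid emulsion (10 mL/kg) 30 min later. Plasma TG from tail vein before and 2 h after lipid load; rise in TG expressed as percent inhibition versus vehicle group.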

Setting [1] is: read-out: Hypoglycemic action (30 mg/kg/day).
[2] abbreviates: read-out: Insulin in blood plasma-lowering action (30 mg/kg/day).
Where [3] appears, read: read-out: Weight gain-inhibiting action (30 mg/kg/day).

Like-named read-outs stand apart in the source and are kept apart here.

As for `CC(C)(COc1cnc(-c2ccc(-c3nc(C(F)(F)F)c[nH]3)cc2)cn1)C(=O)O` [Example 89-2), 2,2-dimethyl-3-[(5-{4-[4-(trifluoromethyl)-1H-imidazol-2-yl]phenyl}pyrazin-2-yl)oxy]-propanoic acid], the inhibition in vivo at 30 mg/kg in the assay with KK-Ay mice (setting [1]) was 68%; in the assay with KK-Ay mice (setting [2]) it was 88%; with KK-Ay mice (setting [3]), 63%. For the same compound, the inhibition in vivo at 5 mg/kg stood at 75% in the assay on C57BL/6J mice and 52% with ICR mice.
On the same counts, the results for `Cc1nc(OCC(C)(C)C(=O)O)ccc1-c1ccc(-c2ncc(C(F)(F)F)[nH]2)cc1` [Example 74] are 56%, 51%, 47%, 60% and 50%.
For `CCC(CC)(COc1ccc(-c2ccc(-c3ncc(C(F)(F)F)[nH]3)nc2)cn1)C(=O)O` [Example 23], in that order: -13%, 14%, 39%, 63% and 85%.
Turning to `CC(C)(COc1ccc(-c2ccc(-c3ncc(C(F)(F)F)[nH]3)nn2)cc1)C(=O)O` [Example 87-7), 2,2-dimethyl-3-(4-{6-[4-(trifluoromethyl)-1H-imidazol-2-yl]pyridazin-3-yl}phenoxy)-propanoic acid], the results for the inhibition in vivo at 30 mg/kg in the assay on KK-Ay mice (setting [1]), in the assay with KK-Ay mice (setting [2]) and with KK-Ay mice (setting [3]) were 35%, 19% and 22%, respectively. Moreover, the inhibition in vivo at 5 mg/kg with C57BL/6J mice came to 59%; in the assay on ICR mice it was 57%.
